Data on one molecule can be found in patent US20230382915A1, “GCN2 AND PERK KINASE INHIBITORS AND METHODS OF USE THEREOF” (Deciphera Pharmaceuticals, LLC, priority 2021, published 2023).

pIC50: −log10 of the molar value. A value given as a limit tells only on which side of the number the result lay.

Assay type in all cases: cell-based
Experiment [1] concerns ATF4 in HCT116 colorectal cancer cells. In words: HCT116 amino acid starved (-AA) ATF4 Western blot. The following applies: Homo sapiens, HCT-116, 4 h. How it is done:
HCT116 colorectal cancer cells (catalog #CCL-247) were obtained from the American Type Culture Collect (ATTC, Manassas, VA). Briefly, cells were grown in RPMI 1640 supplemented with 10% heat inactivated fetal bovine serum (Invitrogen, Carlsbad, CA) and 1% Penicillin/Streptomycin/L-Glutamine at 37° C., 5% CO2, and 95% humidity. Cells were expanded until reaching 70-95% confluency at which point they were subcultured or harvested for assay use. Cells were seeded in 12-well culture plate at five hundred thousand cells per well in 1 mL complete growth medium and incubated overnight at 37° C., 5% CO2, and 95% humidity. The next day each well was replaced with 1 mL Earle's Balanced Salt Solution (EBSS, Invitrogen, Carlsbad, CA) supplemented with 10% Dialyzed Fetal Bovine Serum, 5.5 mM Glucose, 1% Penicillin/Streptomycin and 1% Vitamin solution (thermo #11120052). A serial dilution of test compound was dispensed into well. Plates were incubated for 4 h at 37° C., 5% CO2, and 95% humidity. […] Western blot was performed on each lysate to quantify phospho-GCN2 (Thr899), total GCN2, ATF4 and beta-Actin. […] Data were analyzed using GraphPad Prism software (GraphPad, San Diego, CA) to calculate IC50 values.

In another experiment the test system is H2030 spheroids. In words: Spheroid Western blot assay, H2030. How it is done: (§1) NSCLC cell lines H358 (catalog #CRL-5807) and H2030 (catalog #CRL-5914), and fibrosarcoma cell line HT-1080 (catalog […]) were obtained from the American Type Culture Collect (ATTC, Manassas, VA). Cells were grown in RPMI-1640 medium supplemented with 10% heat-inactivated fetal bovine serum and 1% Penicillin/Streptomycin/L-Glutamine (Invitrogen, Carlsbad, CA) at 37° C., 5% CO2, and 95% humidity and maintained at 50-80% confluency until use. Cells were plated at 500,000 cells/well in 24-well Elplasia plates (Corning, Glendale, AZ) with complete growth media at 1 mL/well and incubated overnight at 37° C., 5% CO2, and 95% humidity to form spheroids. The next day, serial dilutions of test compounds were prepared in complete growth media and 500 μL existing media was removed from each well and replaced with fresh media containing compound titers. Spheroids were then incubated with test compounds for 4 hours or 24 hours under the same conditions. […] Western blots were performed to quantify phospho-GCN2 (R&D Systems, Minneapolis, MN), ATF4, CHOP, cleaved PARP, cleaved Caspase 3 and 7, and beta-Actin (Cell Signaling Technology, Danvers, MA). […]
(A western blot detects proteins with antibodies after separation by electrophoresis.)

Experiment [2] relates to H2030 solid tumor spheroids. In words: Spheroid proliferation assay, H2030. Particulars: for spheroid growth, combination treatment: 96 h. How it is done: Non Small Cell Lung Cancer (NSCLC) cell lines H358 (catalog #CRL-5807) and H2030 (catalog #CRL-5914), and fibrosarcoma line HT-1080 (catalog […]) were obtained from the American Type Culture Collect (ATTC, Manassas, VA). Cells were grown in RPMI-1640 medium supplemented with 10% heat-inactivated fetal bovine serum and 1% Penicillin/Streptomycin/L-Glutamine (Invitrogen, Carlsbad, CA) at 37° C., 5% CO2, and 95% humidity and maintained at 50-80% confluency until use. 500-1000 cells were plated in 96-well ultra-low attachment plates (Corning, Glendale, AZ) with complete growth media at 80 μL/well and incubated overnight at 37° C., 5% CO2, and 95% humidity to form spheroids. The next day, serial dilutions of test compounds were prepared in complete growth media and 20 μL/well media containing compound titers was added to spheroids in triplicate. […] At the end of the incubation, spheroids were lysed with 100 μL/well CellTiter-Glo 3D Viability Assay (Promega, Madison, WI) and luminescence was detected using Synergy2 or equivalent reader (Biotek, Winooski, VT). Data was analyzed using GraphPad Prism software (GraphPad, San Diego, CA) to calculate IC50 values.

In a further experiment the test system is H358 spheroids. As to the kind of experiment: Spheroid Western blot assay, H358. How it is done: as §1

In general, pIC50 refers to the negative decadic logarithm of the IC50, by convention in mol/L. Read a high pIC50 as a small IC50. As to `Cn1cc(-c2cccc(NS(=O)(=O)c3cc(Cl)cc(CO)c3Cl)c2F)c2c(N)ncnc21` [Example 2, N-(3-(4-amino-7-methyl-7H-pyrrolo[2,3-d]pyrimidin-5-yl)-2-fluorophenyl)-2,5-dichloro-3-(hydroxymethyl)benzenesulfonamide], in experiment [1], the pIC50 was not below 7.00. In addition, the “upregulation of ATF4 (Western blot quantification)” value with H2030 spheroids is “up to 20 fold”; in the experiment on H358 spheroids, not above 12 fold. In addition, the “cell regression, single agent” value in experiment [2] (5 days, FIG. 11A) came out at 50%. Besides, the “spheroid growth, combination treatment” value in experiment [2] (with 3.3 nM sotorasib, FIG. 12A) is “greater spheroid regression compared to either single agent”; in experiment [2] (with 3.7 nM trametinib, FIG. 12C) it was “greater spheroid regression compared to either single agent”.
